Tests used:
Experiment in all cases: Test B pre-/postemergence plant response
Type in all cases: in vivo
[1] = test system: velvetleaf (Abutilon theophrasti)
Summary of the method: (§1)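 Preemergence and postemergence (plants 2-18 cm, 1- to 4-leaf stage) applications used test chemicals in a non-phytotoxic solvent with surfactant. Plants were held in a greenhouse 13 to 15 days, then rated visually against controls on a 0-100 scale (0 no effect, 100 complete control).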

[2] = test system: woolly cupgrass (Eriochloa villosa)
Summary of the method: as §1

[3] = test system: wild oat (Avena fatua)
Summary of the method: as §1

[4] = test system: catchweed bedstraw (Galium aparine); conditions: Preemergence, scale 0 to 100
Summary of the method: as §1

[5] = test system: cocklebur (Xanthium strumarium); conditions: for Cocklebur plant response rating: 8 g ai/ha
Summary of the method: as §1

[6] = test system: large crabgrass (Digitaria sanguinalis)
Summary of the method: as §1

[7] = test system: kochia (Kochia scoparia)
Summary of the method: as §1

[8] = test system: pigweed (Amaranthus retroflexus)
Summary of the method: as §1

[9] = test system: green foxtail (Setaria viridis)
Summary of the method: as §1

[10] = test system: blackgrass (Alopecurus myosuroides); conditions: for Blackgrass plant response rating: 8 g ai/ha
Summary of the method: as §1

[11] = test system: common ragweed (Ambrosia elation)
Summary of the method: as §1

[12] = test system: lambsquarters (Chenopodium album)
Summary of the method: as §1

[13] = test system: yellow nutsedge (Cyperus esculentus)
Summary of the method: as §1

[14] = test system: corn (Zea mays)
Summary of the method: as §1

[15] = 8 g ai/ha, postemergence, 0-100 scale
[16] = Postemergence, 16 g ai/ha, scale 0 to 100
[17] = Postemergence, 31 g ai/ha, scale 0 to 100
[18] = Postemergence, 62 g ai/ha, scale 0 to 100, 0 no effect, 100 complete control
[19] = Preemergence, 31 g ai/ha, scale 0 to 100 (0 no effect, 100 complete control)
[20] = Preemergence, 8 g ai/ha, scale 0 to 100
[21] = Preemergence, 16 g ai/ha, scale 0 to 100
[22] = Preemergence, 31 g ai/ha, 0 to 100 scale, 0 no effect, 100 complete control
[23] = Preemergence, 62 g ai/ha, scale 0 to 100
[24] = Preemergence, 16 g ai/ha, scale 0 to 100 (0 no effect, 100 complete control)

Cc1cc(-c2ccc(Cl)cc2)nn1-c1c(OC(=O)c2cccs2)cnn(C)c1=O [Compound 52]
Velvetleaf plant response rating [1, 15]: 0 | Plant response rating, Velvetleaf [1, 16]: 0 | Plant response rating, Velvetleaf [1, 17]: 0 | Plant response rating, Velvetleaf [1, 18]: 0 | Plant response rating, Velvetleaf [1, 19]: 0 | Plant response rating, Velvetleaf ([1]; Preemergence, 62 g ai/ha, 0 to 100 scale, 0 no effect, 100 complete control): 0 | Velvetleaf plant response rating [1, 20]: 0 | Velvetleaf plant response rating [1, 21]: 0 | Cupgrass, Woolly plant response rating [2, 15]: 75 | Plant response rating, Cupgrass, Woolly [2, 16]: 90 | Plant response rating, Cupgrass, Woolly [2, 17]: 95 | Plant response rating, Cupgrass, Woolly [2, 18]: 100 | Plant response rating, Cupgrass, Woolly [2, 22]: 0 | Plant response rating, Cupgrass, Woolly [2, 23]: 0 | Cupgrass, Woolly plant response rating [2, 20]: 0 | Cupgrass, Woolly plant response rating [2, 21]: 0 | Oat, Wild plant response rating [3, 15]: 50 | Plant response rating, Oat, Wild [3, 16]: 90 | Plant response rating, Oat, Wild [3, 17]: 95 | Plant response rating, Oat, Wild [3, 18]: 100 | Plant response rating, Oat, Wild [3, 19]: 70 | Plant response rating, Oat, Wild [3, 23]: 90 | Oat, Wild plant response rating [3, 20]: 0 | Oat, Wild plant response rating [3, 21]: 30 | Plant response rating, Galium ([4]; 62 g ai/ha): 0 | Galium plant response rating ([4]; 8 g ai/ha): 0 | Galium plant response rating ([4]; 16 g ai/ha): 0 | Cocklebur plant response rating ([5]; postemergence, 0-100 scale): 0 | Plant response rating, Cocklebur [5, 16]: 0 | Plant response rating, Cocklebur [5, 17]: 0 | Plant response rating, Cocklebur [5, 18]: 0 | Plant response rating, Cocklebur [5, 24]: 0 | Plant response rating, Cocklebur [5, 22]: 0 | Plant response rating, Cocklebur [5, 23]: 0 | Cocklebur plant response rating ([5]; Preemergence, scale 0 to 100): 0 | Crabgrass, Large plant response rating [6, 15]: 65 | Plant response rating, Crabgrass, Large [6, 16]: 85 | Plant response rating, Crabgrass, Large [6, 17]: 100 | Plant response rating, Crabgrass, Large [6, 18]: 100 | Plant response rating, Crabgrass, Large [6, 22]: 0 | Plant response rating, Crabgrass, Large [6, 23]: 0 | Crabgrass, Large plant response rating [6, 20]: 0 | Crabgrass, Large plant response rating [6, 21]: 0 | Kochia plant response rating [7, 15]: 0 | Plant response rating, Kochia [7, 16]: 0 | Plant response rating, Kochia [7, 17]: 0 | Plant response rating, Kochia [7, 18]: 0 | Plant response rating, Kochia [7, 23]: 85 | Kochia plant response rating [7, 20]: 0 | Kochia plant response rating [7, 21]: 0 | Pigweed plant response rating [8, 15]: 0 | Plant response rating, Pigweed [8, 16]: 0 | Plant response rating, Pigweed [8, 17]: 0 | Plant response rating, Pigweed [8, 18]: 0 | Plant response rating, Pigweed [8, 19]: 0 | Plant response rating, Pigweed [8, 23]: 0 | Pigweed plant response rating [8, 20]: 0 | Pigweed plant response rating [8, 21]: 0 | Foxtail, Green plant response rating [9, 15]: 80 | Plant response rating, Foxtail, Green [9, 16]: 95 | Plant response rating, Foxtail, Green [9, 17]: 98 | Plant response rating, Foxtail, Green [9, 18]: 100 | Plant response rating, Foxtail, Green [9, 22]: 100 | Plant response rating, Foxtail, Green [9, 23]: 100 | Foxtail, Green plant response rating [9, 20]: 90 | Foxtail, Green plant response rating [9, 21]: 90 | Blackgrass plant response rating ([10]; postemergence, 0-100 scale): 50 | Plant response rating, Blackgrass [10, 16]: 70 | Plant response rating, Blackgrass [10, 17]: 95 | Plant response rating, Blackgrass [10, 18]: 95 | Plant response rating, Blackgrass [10, 24]: 95 | Plant response rating, Blackgrass [10, 22]: 100 | Plant response rating, Blackgrass [10, 23]: 100 | Blackgrass plant response rating ([10]; Preemergence, scale 0 to 100): 0 | Ragweed plant response rating [11, 15]: 0 | Plant response rating, Ragweed [11, 16]: 0 | Plant response rating, Ragweed [11, 17]: 0 | Plant response rating, Ragweed [11, 18]: 0 | Plant response rating, Ragweed [11, 19]: 0 | Plant response rating, Ragweed [11, 23]: 0 | Ragweed plant response rating [11, 20]: 0 | Ragweed plant response rating [11, 21]: 0 | Lambsquarters plant response rating [12, 15]: 0 | Plant response rating, Lambsquarters [12, 16]: 0 | Plant response rating, Lambsquarters [12, 17]: 0 | Plant response rating, Lambsquarters [12, 18]: 0 | Plant response rating, Lambsquarters [12, 22]: 0 | Plant response rating, Lambsquarters [12, 23]: 0 | Lambsquarters plant response rating [12, 20]: 0 | Lambsquarters plant response rating [12, 21]: 0 | Nutsedge, Yellow plant response rating [13, 15]: 0 | Plant response rating, Nutsedge, Yellow [13, 16]: 0 | Plant response rating, Nutsedge, Yellow [13, 17]: 0 | Plant response rating, Nutsedge, Yellow [13, 18]: 0 | Plant response rating, Nutsedge, Yellow [13, 19]: 0 | Plant response rating, Nutsedge, Yellow [13, 23]: 0 | Nutsedge, Yellow plant response rating [13, 20]: 0 | Nutsedge, Yellow plant response rating [13, 21]: 0 | Corn plant response rating [14, 15]: 85 | Plant response rating, Corn [14, 16]: 98 | Plant response rating, Corn [14, 17]: 98 | Plant response rating, Corn [14, 18]: 98 | Plant response rating, Corn [14, 22]: 70 | Plant response rating, Corn [14, 23]: 75 | Corn plant response rating [14, 20]: 0 | Corn plant response rating [14, 21]: 55

Reference: patent US20100267561A1, “HERBICIDAL PYRIDAZINONE DERIVATIVES” (priority 2007, published 2010)
